Molecular target: T1, human CYP17 (Homo sapiens, UniProt P05093)
T1 sequence (P05093 1-508): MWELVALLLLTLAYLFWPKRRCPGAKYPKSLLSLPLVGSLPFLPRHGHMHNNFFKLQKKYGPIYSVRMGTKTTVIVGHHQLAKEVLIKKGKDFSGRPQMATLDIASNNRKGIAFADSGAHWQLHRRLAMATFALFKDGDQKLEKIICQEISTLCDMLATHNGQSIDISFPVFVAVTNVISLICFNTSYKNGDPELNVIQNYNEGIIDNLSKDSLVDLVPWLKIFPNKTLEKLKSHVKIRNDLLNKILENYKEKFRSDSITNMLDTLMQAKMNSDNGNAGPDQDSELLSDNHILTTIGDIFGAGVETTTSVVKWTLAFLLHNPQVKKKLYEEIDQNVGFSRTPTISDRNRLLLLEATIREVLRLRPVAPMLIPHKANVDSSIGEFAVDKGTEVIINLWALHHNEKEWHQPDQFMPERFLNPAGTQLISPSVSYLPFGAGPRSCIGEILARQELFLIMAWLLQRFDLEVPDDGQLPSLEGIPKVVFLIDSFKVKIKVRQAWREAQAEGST
Experiment: Cell-based human CYP17 inhibition assay, H295R adrenocortical carcinoma cells
Set-up: H295R Adrenocortical carcinoma cells [NCI-H295A, ATCC Number CRL-2128, American Type Culture Collection; host or cells: H295R adrenocortical carcinoma cells
Conditions: 16 hours at 37° C., read-out: CYP17 (human H295R adrenal cells)
Description: Cell-Based Human CYP17 Inhibition Assay
A. Materials • 1. H295R Adrenocortical Carcinoma Cells and Growth Media: The media for the H295R Adrenocortical carcinoma cells [NCI-H295A, ATCC Number CRL-2128, American Type Culture Collection, Manassas, Va., US] (500 mL) was a DMEM:F12 Mix 1:1 with 5% […] BD Nu Serum; 1% (5 mL) ITS+Premix [BD Biosciences] and 1% Penstrep. • 2. LNCap-CYP17 Cells and Growth Media: Full length hCYP17a1 gene (NCBI Reference Sequence: NM_000102.3) was cloned in pCDNA3.1(+) vector between HindIII and XhoI site. The pCDNA3.1(+) vector contains the Neomycin resistance gene and was used for selection of stable cell line. The hCYP17a1 containing pCDNA3.1(+) was transfected into LNCap cells to create the LNCap-CYP17 cell line. The media for the LNCaP-CYP17 cells was RPMI 1640, 10% FBS, 1% PenStrep, Geneticin 400 μg/mL.
The H295R cells or LNCaP-hCYP17 cells were subcultured and 30,000 cells per well were seeded in a poly-d lysine plate and incubated overnight at 37° C. The next day the media was removed and 200 µL of fresh media with ^3H3-17α-hydroxy-pregnenolone (1:1000) was added. 50 μL of serially diluted compounds from a 5× plate (5 times the final desired concentration) was added. The working concentration range for active, new compounds started from a high concentration of […] with 3-fold serial dilutions generating up to 10 concentrations. The serial dilution in the 100× plate (in DMSO) and the stamping of a 5× plate (in media) from the 100× plate were carried out using a TECAN liquid handling device.
The plates were incubated overnight (16 hours) at 37° C. After 16 hours, the media was removed (approximately 220 μL) and an equal amount of chloroform was added, mixed and incubated for 30 minutes at 4 degrees. The plate was centrifuged at 4000 rpm for 15 minutes at 4° C., following which the top aqueous layer was carefully removed and added into a new deep well plate. An equal volume of activated 5% charcoal was added, mixed and incubated for 30 minutes at 4° C. The plate was then centrifuged at 4000 rpm for 15 minutes at 4° C. and the top layer carefully separated, avoiding any charcoal contamination, and placed in a white, clear bottom plate (plate cat #3610, Corning Life Sciences). An equal volume of Microscint™ 40 was added and mixed well. Following the incubation for 30 minutes, readings for the radiotracer were taken using a Microbeta® trilux.

Row | SMILES | IC50 [nM]
1 | CCC(c1ccc(-c2ccc(C(=O)O)cc2)cn1)n1ccnc1 (stereo not shown) [Example 6, 4-(6-(1-(1H-imidazol-1-yl)propyl)pyridin-3-yl)benzoic acid] | 201 to 10000
2 | CCc1cc(F)ccc1-c1ncc(C(CC)n2ccnc2)s1 (stereo not shown) [Example 46, 2-(2-Ethyl-4-fluoro-phenyl)-5-(1-imidazol-1-yl-propyl)-thiazole] | < 50
3 | CC(c1ccc(-c2cccc(F)c2)cn1)n1ccnc1 (stereo not shown) [Example 57, 5-(3-Fluoro-phenyl)-2-(1-imidazol-1-yl-ethyl)-pyridine] | 50 to 200
4 | CC(c1ccc(-c2ccccc2F)cn1)n1ccnc1 (stereo not shown) [Example 40, 5-(2-Fluoro-phenyl)-2-(1-imidazol-1-yl-ethyl)-pyridine] | 50 to 200
5 | CCC(c1ccc(-c2ccccc2F)cn1)n1ccnc1 (stereo not shown) [Example 48, 5-(2-Fluoro-phenyl)-2-(1-imidazol-1-yl-propyl)-pyridine] | < 50
6 | CCC(c1ccc(-c2cccc(O)c2)cn1)n1ccnc1 (stereo not shown) [Example 8, 3-(6-(1-(1H-imidazol-1-yl)propyl)pyridin-3-yl)phenol] | < 50
7 | CC(c1cnc(-c2ccc(F)cc2F)s1)n1ccnc1 (stereo not shown) [Example 28, 2-(2,4-Difluoro-phenyl)-5-(1-imidazol-1-yl-ethyl)-thiazole] | < 50
8 | CCOC(=O)c1ccc(-c2ccc(C(CC)n3ccnc3)nc2)cc1 (stereo not shown) [Example 5, Ethyl 4-(6-(1-(1H-imidazol-1-yl)propyl)pyridin-3-yl)benzoate] | 50 to 200
9 | CC(c1ccc(-c2ccc(=O)n(C(C)C)c2)s1)n1ccnc1 (stereo not shown) [Example 21, 5-(5-(1-(1H-imidazol-1-yl)ethyl)thiophen-2-yl)-1-isopropylpyridin-2(1H)-one] | 50 to 200
10 | CCC(c1ccc(-c2ccc(O)cc2)s1)n1ccnc1 (stereo not shown) [Example 4, 4-(5-(1-(1H-imidazol-1-yl)propyl)thiophen-2-yl)phenol] | < 50
11 | CCC(c1ccc(-c2cccc(OC)c2)cn1)n1ccnc1 (stereo not shown) [Example 7, 2-(1-(1H-imidazol-1-yl)propyl)-5-(3-methoxyphenyl)pyridine] | < 50
12 | COc1ccc(-c2cccnc2C(C)n2ccnc2)cc1 (stereo not shown) [Example 66, 2-(1-(1H-imidazol-1-yl)ethyl)-3-(4-methoxyphenyl)-pyridine] | < 50
13 | CCC(c1ccc(-c2ccccc2OC)cn1)n1ccnc1 (stereo not shown) [Example 56, 2-(1-Imidazol-1-yl-propyl)-5-(2-methoxy-phenyl)-pyridine] | 50 to 200
14 | CCC(c1cnc(-c2ccc(O)cc2)s1)n1ccnc1 (stereo not shown) [Example 60, 4-[5-(1-Imidazol-1-yl-propyl)-thiazol-2-yl]-phenol] | 50 to 200
15 | COc1ccc(-c2ccc(C(C)n3ccnc3)nc2)cc1 (stereo not shown) [Example 15, 2-(1-(1H-imidazol-1-yl)ethyl)-5-(4-methoxyphenyl)pyridine] | 50 to 200
16 | COc1ccc(-c2ccc(C(C)(C)n3ccnc3)nc2)cc1 [Example 61, 2-(1-Imidazol-1-yl-1-methyl-ethyl)-5-(4-methoxy-phenyl)-pyridine] | 50 to 200
17 | CC(C)(c1ccc(-c2ccc(O)cc2)s1)n1ccnc1 [Example 26, 4-[5-(1-Imidazol-1-yl-1-methyl-ethyl)-thiophen-2-yl]-phenol] | < 50
18 | CCC(c1ccc(-c2cccc(F)c2)cn1)n1ccnc1 (stereo not shown) [Example 45, 5-(3-Fluoro-phenyl)-2-(1-imidazol-1-yl-propyl)-pyridine] | < 50
19 | COc1ccc(-c2ccc(C(CC(C)C)n3ccnc3)nc2)cc1 (stereo not shown) [Example 62, 2-(1-Imidazol-1-yl-3-methyl-butyl)-5-(4-methoxy-phenyl)-pyridine] | 50 to 200
20 | CCC(c1ccc(-c2ccc(OC)cc2)o1)n1ccnc1 (stereo not shown) [Example 27, 1-{1-[5-(4-Methoxy-phenyl)-furan-2-y]-propyl}-1H-imidazole] | < 50
21 | CCC(c1cnc(-c2cn[nH]c2)s1)n1ccnc1 (stereo not shown) [Example 44, 5-(1-Imidazol-1-yl-propyl)-2-(1H-pyrazol-4-yl)-thiazole] | 50 to 200

More lines, now with the values ahead:

Row | IC50 [nM] | SMILES
22 | 201 to 10000 | CCC(c1ccc(-c2ccc(C(=O)NC)cc2)cn1)n1ccnc1 (stereo not shown) [Example 9, 4-(6-(1-(1H-imidazol-1-yl)propyl)pyridin-3-yl)-N-methylbenzamide]
23 | < 50 | CC(C)CC(c1ccc(-c2ccc(O)cc2)s1)n1ccnc1 (stereo not shown) [Example 23, 4-(5-(1-(1H-imidazol-1-yl)-3-methylbutyl)-thiophen-2-yl)phenol]
24 | 201 to 10000 | CC(c1ccc(-c2ccc(N)cc2)cn1)n1ccnc1 (stereo not shown) [Example 14, 4-(6-(1-(1H-imidazol-1-yl)ethyl)pyridin-3-yl)aniline]
25 | 50 to 200 | COc1ccc(-c2ncc(C(C)n3ccnc3)s2)cn1 (stereo not shown) [Example 58, 5-[5-(1-Imidazol-1-yl-ethyl)-thiazol-2-yl]-2-methoxy-pyridine]
26 | 50 to 200 | CC(C)(c1ccc(-c2ccc(O)cc2)cn1)n1ccnc1 [Example 52, 4-[6-(1-Imidazol-1-yl-1-methyl-ethyl)-pyridin-3-yl]-phenol]
27 | < 50 | CCC(c1ccc(-c2ccc(O)cc2)o1)n1ccnc1 (stereo not shown) [Example 30, 4-[5-(1-Imidazol-1-yl-propyl)-furan-2-yl]-phenol]
28 | 50 to 200 | CCOC(=O)c1ccc(-c2ncc(C(C)n3ccnc3)s2)cc1 (stereo not shown) [Example 55, 4-[5-(1-Imidazol-1-yl-ethyl)-thiazol-2-yl]-benzoic acid ethyl ester]
29 | 50 to 200 | CCC(c1ccc(-c2ccc(CO)cc2)cn1)n1ccnc1 (stereo not shown) [Example 41, {4-[6-(1-Imidazol-1-yl-propyl)-pyridin-3-yl]-phenyl}-methanol]
30 | 50 to 200 | CCC(c1ccc(-c2cccc(C#N)c2)cn1)n1ccnc1 (stereo not shown) [Example 53, 3-[6-(1-Imidazol-1-yl-propyl)-pyridin-3-yl]-benzonitrile]
31 | < 50 | CCC(c1cnc(-c2ccc(F)cc2F)s1)n1ccnc1 (stereo not shown) [Example 32, 2-(2,4-Difluoro-phenyl)-5-(1-imidazol-1-yl-propyl)-thiazole]
32 | < 50 | CCC(c1ccc(-c2ccc(O)cc2)cn1)n1ccnc1 (stereo not shown) [Example 50, 4-[6-(1-Imidazol-1-yl-propyl)-pyridin-3-yl]-phenol]
33 | 50 to 200 | CCC(c1ccc(-c2ccc(OC)cc2)cn1)n1ccnc1 (stereo not shown) [Example 47, 2-(1-Imidazol-1-yl-propyl)-5-(4-methoxy-phenyl)-pyridine]
34 | < 50 | COc1ccc(-c2ccc(C(C)n3ccnc3)s2)cn1 (stereo not shown) [Example 25, 5-[5-(1-Imidazol-1-yl-ethyl)-thiophen-2-yl]-2-methoxy-pyridine]
35 | 201 to 10000 | CC(=O)Nc1ccc(-c2ccc(C(C)n3ccnc3)nc2)cc1 (stereo not shown) [Example 64, N-{4-[6-(1-Imidazol-1-yl-ethyl)-pyridin-3-yl]-phenyl}-acetamide]
36 | < 50 | CCC(c1ccc(-c2ccc(F)cc2)cn1)n1ccnc1 (stereo not shown) [Example 29, 5-(4-Fluoro-phenyl)-2-(1-imidazol-1-yl-propyl)-pyridine]
37 | < 50 | CCC(c1cnc(-c2ccc(F)cc2)s1)n1ccnc1 (stereo not shown) [Example 33, 2-(4-Fluoro-phenyl)-5-(1-imidazol-1-yl-propyl)-thiazole]
38 | 50 to 200 | CCC(c1cnc(-c2ccc(OC)cc2)s1)n1ccnc1 (stereo not shown) [Example 35, 5-(1-Imidazol-1-yl-propyl)-2-(4-methoxy-phenyl)-thiazole]
39 | 50 to 200 | CCC(c1ccc(-c2ccc(COCOC)cc2)cn1)n1ccnc1 (stereo not shown) [Example 11, 2-(1-(1H-imidazol-1-yl)propyl)-5-(4-((methoxymethoxy)methyl)-phenyl)pyridine]
40 | 50 to 200 | CCC(c1ccc(-c2ccc(NC(C)=O)cc2)cn1)n1ccnc1 (stereo not shown) [Example 43, N-{4-[6-(1-Imidazol-1-yl-propyl)-pyridin-3-yl]-phenyl}-acetamide]

— US9199975B2, “Biaryl imidazole derivatives for regulating CYP17” (Asana Biosciences, LLC, priority 2011, dated 2015)
